According to patent US10131652B2, “Pyrimidinyloxy benzene derivatives as herbicides” (E. I. DU PONT DE NEMOURS AND COMPANY, priority 2014, dated 2018):
Where two headings read alike, the source gives them in different places.

Assays:
Test in all cases: Test F pre-/postemergence plant response
Assay type in all cases: in vivo
[1] = test system: velvetleaf (Abutilon theophrasti); settings: Abutilon theophrasti, pre-emergence, scale 0 to 100, read-out: Plant response rating, Velvetleaf
Summary of the method: (§1)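 Seeds were sown in silt loam and sprayed preemergence; in parallel, plants at 2–18 cm (1- to 4-leaf) received postemergence sprays. Test chemicals were in a non-phytotoxic solvent with surfactant. After 14–21 days in the greenhouse, injury was rated visually against controls on a 0–100 scale (100 = complete control).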

[2] = test system: yellow nutsedge (Cyperus esculentus); settings: Cyperus, pre-emergence, scale 0 to 100, read-out: Plant response rating, Nutsedge, Yellow
Summary of the method: as §1

[3] = test system: green foxtail (Setaria viridis); settings: Setaria viridis, pre-emergence, Preemergence, scale 0 to 100, read-out: Plant response rating, Foxtail, Green
Summary of the method: as §1

[4] = test system: ragweed (common ragweed, Ambrosia elatior); settings: Ambrosia artemisiifolia, scale 0 to 100, read-out: Plant response rating, Ragweed
Summary of the method: as §1

[5] = test system: field bindweed (Convolvulus arvensis); settings: Convolvulus arvensis, scale 0 to 100, read-out: Plant response rating, Field Bindweed
Summary of the method: as §1

[6] = test system: hairy beggarticks (Bidens pilosa); settings: Bidens pilosa, scale 0 to 100, read-out: Plant response rating, Beggarticks
Summary of the method: as §1

[7] = test system: kochia (Kochia scoparia); settings: Bassia scoparia, scale 0 to 100, read-out: Plant response rating, Kochia; for pest or weed control at 16 g/ha: 16 g ai/ha; for pest or weed control at 31 g/ha: 31 g ai/ha; for pest or weed control at 125 g/ha: 125 g ai/ha
Summary of the method: as §1

[8] = test system: palmer pigweed (Amaranthus palmeri); settings: Amaranthus palmeri, scale 0 to 100, read-out: Plant response rating, Pigweed, Palmer
Summary of the method: as §1

[9] = test system: nightshade (eastern black nightshade, Solanum ptycanthum); settings: Solanum, pre-emergence, scale 0 to 100, read-out: Plant response rating, Nightshade
Summary of the method: as §1

[10] = test system: wild poinsettia (Euphorbia heterophylla); settings: Euphorbia heterophylla, scale 0 to 100, read-out: Plant response rating, Poinsettia, Wild
Summary of the method: as §1

[11] = test system: goosegrass (Eleusine indica); settings: Eleusine indica, pre-emergence, scale 0 to 100, read-out: Plant response rating, Goosegrass
Summary of the method: as §1

[12] = test system: fall panicum (Panicum dichotomiflorum); settings: Panicum dichotomiflorum, scale 0 to 100, read-out: Plant response rating, Panicum, Fall
Summary of the method: as §1

[13] = test system: johnsongrass (Sorghum halepense); settings: Sorghum halepense, pre-emergence, scale 0 to 100, read-out: Plant response rating, Johnsongrass
Summary of the method: as §1

[14] = test system: arrowleaf sida (Sida rhombifolia); settings: Sida rhombifolia, scale 0 to 100, read-out: Plant response rating, Arrowleaf Sida
Summary of the method: as §1

[15] = test system: corn (Zea mays); settings: Zea mays, scale 0 to 100
Summary of the method: as §1

[16] = test system: waterhemp (common waterhemp, Amaranthus rudis); settings: Amaranthus tuberculatus, scale 0 to 100, read-out: Plant response rating, Waterhemp
Summary of the method: as §1

[17] = post-emergence, 16 g ai/ha Postemergence
[18] = post-emergence, 31 g ai/ha Postemergence
[19] = post-emergence, 62 g ai/ha Postemergence
[20] = post-emergence, 125 g ai/ha Postemergence
[21] = pre-emergence, 16 g ai/ha Preemergence
[22] = pre-emergence, 31 g ai/ha Preemergence
[23] = pre-emergence, 125 g ai/ha Preemergence
[24] = pre-emergence, 62 g ai/ha Preemergence

Compound: Fc1cccc(Oc2ncc(Cl)cn2)c1-c1cc(C(F)F)no1 [Compound 144, 5-chloro-2-[2-[3-(difluoromethyl)-5-isoxazolyl]-3-fluorophenoxy]pyrimidine]
- pest or weed control at 16 g/ha ([1]; 16 g ai/ha Preemergence): 80%
- pest or weed control at 31 g/ha ([1]; 31 g ai/ha Preemergence): 100%
- pest or weed control at 125 g/ha ([1]; 125 g ai/ha Preemergence): 100%
- pest or weed control at 62 g/ha ([1]; Preemergence): 100%
- pest or weed control at 16 g/ha ([2]; 16 g ai/ha Preemergence): 0%
- pest or weed control at 31 g/ha ([2]; 31 g ai/ha Preemergence): 0%
- pest or weed control at 125 g/ha ([2]; 125 g ai/ha Preemergence): 0%
- pest or weed control at 62 g/ha ([2]; Preemergence): 0%
- pest or weed control at 16 g/ha ([3]; 16 g ai/ha): 25%
- pest or weed control at 31 g/ha ([3]; 31 g ai/ha): 95%
- pest or weed control at 125 g/ha ([3]; 125 g ai/ha): 100%
- pest or weed control at 62 g/ha [3]: 98%
- pest or weed control at 16 g/ha [4, 17]: 50%
- pest or weed control at 31 g/ha [4, 18]: 50%
- pest or weed control at 62 g/ha [4, 19]: 85%
- pest or weed control at 125 g/ha [4, 20]: 90%
- pest or weed control at 16 g/ha [4, 21]: 0%
- pest or weed control at 31 g/ha [4, 22]: 0%
- pest or weed control at 125 g/ha [4, 23]: 85%
- pest or weed control at 62 g/ha ([4]; pre-emergence, Preemergence): 95%
- pest or weed control at 16 g/ha [5, 17]: 70%
- pest or weed control at 31 g/ha [5, 18]: 75%
- pest or weed control at 62 g/ha [5, 19]: 80%
- pest or weed control at 125 g/ha [5, 20]: 90%
- pest or weed control at 16 g/ha [5, 21]: 40%
- pest or weed control at 31 g/ha [5, 22]: 60%
- pest or weed control at 62 g/ha [5, 24]: 65%
- pest or weed control at 125 g/ha [5, 23]: 70%
- pest or weed control at 16 g/ha [6, 17]: 70%
- pest or weed control at 31 g/ha [6, 18]: 60%
- pest or weed control at 62 g/ha [6, 19]: 70%
- pest or weed control at 125 g/ha [6, 20]: 75%
- pest or weed control at 16 g/ha [6, 21]: 0%
- pest or weed control at 31 g/ha [6, 22]: 0%
- pest or weed control at 62 g/ha [6, 24]: 0%
- pest or weed control at 125 g/ha [6, 23]: 0%
- pest or weed control at 16 g/ha ([7]; post-emergence, Postemergence): 95%
- pest or weed control at 31 g/ha ([7]; post-emergence, Postemergence): 95%
- pest or weed control at 62 g/ha ([7]; post-emergence, 62 g ai/ha, Postemergence): 95%
- pest or weed control at 125 g/ha ([7]; post-emergence, Postemergence): 95%
- pest or weed control at 16 g/ha ([7]; pre-emergence, Preemergence): 98%
- pest or weed control at 31 g/ha ([7]; pre-emergence, Preemergence): 100%
- pest or weed control at 125 g/ha ([7]; pre-emergence, Preemergence): 100%
- pest or weed control at 62 g/ha ([7]; pre-emergence, Preemergence): 100%
- pest or weed control at 16 g/ha [8, 17]: 90%
- pest or weed control at 31 g/ha [8, 18]: 100%
- pest or weed control at 62 g/ha [8, 19]: 100%
- pest or weed control at 125 g/ha [8, 20]: 100%
- pest or weed control at 16 g/ha [8, 21]: 100%
- pest or weed control at 31 g/ha [8, 22]: 100%
- pest or weed control at 125 g/ha [8, 23]: 100%
- pest or weed control at 62 g/ha ([8]; pre-emergence, Preemergence): 100%
- pest or weed control at 16 g/ha ([9]; 16 g ai/ha Preemergence): 98%
- pest or weed control at 31 g/ha ([9]; 31 g ai/ha Preemergence): 98%
- pest or weed control at 125 g/ha ([9]; 125 g ai/ha Preemergence): 100%
- pest or weed control at 62 g/ha ([9]; Preemergence): 100%
- pest or weed control at 16 g/ha [10, 17]: 50%
- pest or weed control at 31 g/ha [10, 18]: 50%
- pest or weed control at 62 g/ha [10, 19]: 70%
- pest or weed control at 125 g/ha [10, 20]: 65%
- pest or weed control at 16 g/ha [10, 21]: 0%
- pest or weed control at 31 g/ha [10, 22]: 0%
- pest or weed control at 125 g/ha [10, 23]: 35%
- pest or weed control at 62 g/ha ([10]; pre-emergence, Preemergence): 20%
- pest or weed control at 16 g/ha ([11]; 16 g ai/ha Preemergence): 75%
- pest or weed control at 31 g/ha ([11]; 31 g ai/ha Preemergence): 60%
- pest or weed control at 125 g/ha ([11]; 125 g ai/ha Preemergence): 100%
- pest or weed control at 62 g/ha ([11]; Preemergence): 95%
- pest or weed control at 16 g/ha [12, 17]: 25%
- pest or weed control at 31 g/ha [12, 18]: 30%
- pest or weed control at 62 g/ha [12, 19]: 35%
- pest or weed control at 125 g/ha [12, 20]: 60%
- pest or weed control at 16 g/ha [12, 21]: 95%
- pest or weed control at 31 g/ha [12, 22]: 100%
- pest or weed control at 125 g/ha [12, 23]: 100%
- pest or weed control at 62 g/ha ([12]; pre-emergence, Preemergence): 100%
- pest or weed control at 16 g/ha ([13]; 16 g ai/ha Preemergence): 0%
- pest or weed control at 31 g/ha ([13]; 31 g ai/ha Preemergence): 0%
- pest or weed control at 125 g/ha ([13]; 125 g ai/ha Preemergence): 70%
- pest or weed control at 62 g/ha ([13]; Preemergence): 30%
- pest or weed control at 16 g/ha [14, 17]: 100%
- pest or weed control at 31 g/ha [14, 18]: 100%
- pest or weed control at 62 g/ha [14, 19]: 100%
- pest or weed control at 125 g/ha [14, 20]: 100%
- pest or weed control at 16 g/ha [14, 21]: 95%
- pest or weed control at 31 g/ha [14, 22]: 100%
- pest or weed control at 62 g/ha [14, 24]: 100%
- pest or weed control at 125 g/ha [14, 23]: 100%
- Corn plant response rating (crop injury, 0 = no effect, 100 = complete kill) at 16 g/ha [15, 17]: 10%
- Corn plant response rating (crop injury, 0 = no effect, 100 = complete kill) at 31 g/ha [15, 18]: 5%
- Corn plant response rating (crop injury, 0 = no effect, 100 = complete kill) at 62 g/ha [15, 19]: 10%
- Corn plant response rating (crop injury, 0 = no effect, 100 = complete kill) at 125 g/ha [15, 20]: 10%
- Corn plant response rating (crop injury, 0 = no effect, 100 = complete kill) at 16 g/ha [15, 21]: 0%
- Corn plant response rating (crop injury, 0 = no effect, 100 = complete kill) at 31 g/ha [15, 22]: 0%
- Corn plant response rating (crop injury, 0 = no effect, 100 = complete kill) at 62 g/ha [15, 24]: 40%
- Corn plant response rating (crop injury, 0 = no effect, 100 = complete kill) at 125 g/ha [15, 23]: 35%
- pest or weed control at 16 g/ha [16, 17]: 100%
- pest or weed control at 31 g/ha [16, 18]: 100%
- pest or weed control at 62 g/ha [16, 19]: 100%
- pest or weed control at 125 g/ha [16, 20]: 100%
- pest or weed control at 16 g/ha [16, 21]: 98%
- pest or weed control at 31 g/ha [16, 22]: 100%
- pest or weed control at 125 g/ha [16, 23]: 100%
- pest or weed control at 62 g/ha ([16]; pre-emergence, Preemergence): 100%
